Data taken from patent US11672775B2, “Treprostinil prodrugs” (United Therapeutics Corporation, priority 2016, dated 2023).
≈ marks a conversion by molar mass, not a printed value. Read-outs that look alike come from different tables or passages of the source.

Key:
[1] = Stability in 200 mM potassium phosphate buffer (pH 7.4); format: physicochemical; conditions: 1 μM
Description: According to the earlier aqueous solution stability study, all prodrugs are stable in 20 mM Sodium Phosphate dibasic with 125 mM NaCl at saturation concentrations (3-30 mg/ml). Also, in the method development work, it was also observed that the most unstable prodrugs III, IV and XIV were stable in 200 mM potassium phosphate buffer (pH 7.4) at a low concentration of 1 μM.

[2] = Equilibrium solubility in vehicle; format: physicochemical; conditions: aqueous buffer, thermodynamic from solid, 20 mM sodium phosphate dibasic with 125 mM sodium chloride; for solubility thermodynamic at 23 h: T0 hours, read-out: Equilibrium solubility, T0 hours Concentration; for solubility thermodynamic at 24 h: T24 hours, read-out: Equilibrium solubility, T24 hours Concentration; for solubility thermodynamic at 72 h: T72 hours, read-out: Equilibrium solubility, T72 hours Concentration
Description: (§1) Each prodrug was dissolved in a vehicle containing 20 mM sodium phosphate dibasic with 125 mM sodium chloride. Prodrugs were prepared at saturation concentrations by weighing 15-30 mg of prodrug in to a 4 mL clear glass vial and dissolving in an appropriate volume of vehicle (0.5-1.0 mL) to achieve a nominal saturation concentration of 30 mg/mL. The solutions were mixed for 23 hours on a rotating mixer. […] The resultant supernatant solutions were isolated from undissolved prodrug by centrifugation at 15000 RPM for 15 min. Supernatants were transferred to clear glass vials and stored at ambient temperature. […] The resultant samples were assayed against treprostinil to determine prodrug concentration. At each testing interval (0, 24, 72 hours) the supernatant was assayed for prodrug concentration and purity by area %.

[3] = Solution stability in vehicle (UPLC area %); format: physicochemical; conditions: for Solution stability, T0 Purity: ambient
Description: as §1

[4] = In vitro metabolic stability of prodrugs in liver microsomes, across all species; format: in vitro ADME, human, Beagle dog, Sprague Dawley rat, Cynomolgus monkey
Description: In the second assay, four prodrugs (III, IV, VII and XIV) were tested in Cyno monkey liver microsomes.

[5] = target: T1, IP1 receptor (Homo sapiens, UniProt P43119); assay: cAMP assay (TR-FRET or HTRF kit, forskolin), Examples 5 and 6; format: cell-based; conditions: read-out: EC50, IP receptor
T1 construct: expressed in transfected cells
Description: (§2) [table] Prodrug XV (for structure see FIG. 10) as well as treprostinil were tested for 3 G-protein-coupled receptors (GPCRs), namely DP1, EP2, and IP, using cyclic adenosine monophosphate (cAMP) assay. Cyclic AMP assay kits: Multiscreen™ TR-FRET cAMP 1.0 No Wash Assay Kit (Multispan, Inc., Cat #MSCM01-25) and HTRF cAMP HiRange Kit (CisBio, Cat #62AM6PEC). Instruments: FlexStation III (Molecular Devices). Cyclic AMP (cAMP) Assay: cAMP assays were performed according to the manufacturer's protocol using Multiscreen™ TR-FRET cAMP 1.0 No Wash Assay Kit or HTRF cAMP HiRange Kit. […] The reaction was terminated by sequentially adding sequentially adding trFluor™ Eu-labeled cAMP and trFluor™ 650-labeled anti-cAMP antibody or D2-labeled cAMP and cryptate-labeled anti-cAMP antibody in lysis buffer. The plate was then incubated at room temperature for 60 minutes before reading fluorescent emissions at 620 nm and 665 or 668 nm with excitation at 314 nm on FlexStation III (Molecular Devices). Cyclic AMP (cAMP) assays: Cyclic AMP assay results are shown as “Ratio 665/620×10,000” (ratio of fluorescence at 665 nm and 620 nm×10,000) or “Ratio 668/620×10,000” (ratio of fluorescence at 668 nm and 620 nm×10,000). Data in graphs were represented in Mean±SD. Dose-dependent responses were fitted with sigmoidal dose-response curves allowing variable slopes using GraphPad Prism versions 4, 5 or 6 (Graphpad Prism). Treprostinil Prodrug XIV (for structure see FIG. 10) as well as treprostinil were tested for 3 G-protein-coupled receptors (GPCRs), namely DP1, EP2, and IP, using cyclin adenosine monophosphate (cAMP) assay. Cyclic AMP assay kits: Multiscreen™ TR-FRET cAMP 1.0 No Wash Assay Kit (Multispan, Inc., Cat #MSCM01-25) and HTRF cAMP HiRange Kit (CisBio, Cat #62AM6PEC). Cyclic AMP (cAMP) Assay: cAMP assays were performed according to the manufacturer's protocol using Multiscreen™ TR-FRET cAMP 1.0 No Wash Assay Kit or HTRF cAMP HiRange Kit. […] The reaction was terminated by sequentially adding sequentially adding trFluor™ Eu-labeled cAMP and trFluor™ 650-labeled anti-cAMP antibody or D2-labeled cAMP and cryptate-labeled anti-cAMP antibody in lysis buffer. The plate was then incubated at room temperature for 60 minutes before reading fluorescent emissions at 620 nm and 665 or 668 nm with excitation at 314 nm on FlexStation III (Molecular Devices). Cyclic AMP (cAMP) assays: Cyclic AMP assay results are shown as “Ratio 665/620×10,000” (ratio of fluorescence at 665 nm and 620 nm×10,000) or “Ratio 668/620×10,000” (ratio of fluorescence at 668 nm and 620 nm×10,000). Data in graphs were represented in Mean±SD. Dose-dependent responses were fitted with sigmoidal dose-response curves allowing variable slopes using GraphPad Prism versions 4, 5 or 6 (Graphpad Prism).

[6] = target: T2, EP2 receptor (Homo sapiens, UniProt P43116); assay: as above; format: cell-based; conditions: read-out: EC50, EP receptor
T2 construct: expressed in transfected cells
Description: as §2

[7] = target: T3, DP1 receptor (Homo sapiens, UniProt Q13258); assay: as above; format: cell-based; conditions: read-out: EC50, DP receptor
T3 construct: expressed in transfected cells
T3 sequence (Q13258 1-359): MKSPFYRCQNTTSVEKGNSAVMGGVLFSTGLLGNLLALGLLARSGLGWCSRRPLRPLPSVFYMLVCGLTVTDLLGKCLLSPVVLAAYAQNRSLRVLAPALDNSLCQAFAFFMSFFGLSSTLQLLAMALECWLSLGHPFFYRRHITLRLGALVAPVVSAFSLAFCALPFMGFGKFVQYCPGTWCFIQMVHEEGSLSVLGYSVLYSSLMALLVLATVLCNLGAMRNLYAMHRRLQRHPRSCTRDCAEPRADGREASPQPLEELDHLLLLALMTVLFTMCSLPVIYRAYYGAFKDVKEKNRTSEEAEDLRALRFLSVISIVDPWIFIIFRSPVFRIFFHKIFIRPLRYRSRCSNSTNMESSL
Description: as §2

[8] = system: Sprague Dawley rats; assay: Rat intraplantar injection model, von Frey test (Example 10); format: in vivo, Sprague Dawley rat; conditions: 1 μg/mL or 100 μg/mL; 15 and 90 minutes post-injection
Description: (§3) Male Sprague Dawley rats (n=56) were allocated into 7 groups of 8 animals per group. […] Each group was compared to the phosphate buffer (50-mM phosphate buffer with 50-mM sodium chloride at pH=7.4) treated group, which served as the control (Group 1).
(§4) Animals were administered 0.1 mL of test material by subcutaneous injection into the paw pad (Intraplantar injection) at time zero. Then, the animals were subsequently evaluated for their response to mechanical (von Frey filaments) and thermal stimuli, 15 and 90 minutes post-injection. The von Frey test was conducted prior to the thermal test, which followed immediately within minutes for each animal. In addition, clinical observation scoring of the animal's reaction to injection was conducted.
Mechanical pain sensitivity was tested using the von Frey test, which measures the withdrawal force threshold of the animals. The lower the force applied represents a greater sensitivity to the stimulus. The von Frey test was performed 15 and 90 minutes post-test item injection.

[9] = system: Sprague Dawley rats; assay: Rat intraplantar injection model, thermal pain sensitivity (Example 10); format: in vivo, Sprague Dawley rat; conditions: 1 μg/mL or 100 μg/mL; 15 minutes post-administration
Description: as §3, §4
The sensitivity of animals to a thermal pain stimulus was assessed immediately following the von Frey test. The time until withdrawal of the right-injected leg from a heat source was measured, and the lower (faster) the time of response represents a greater sensitivity to the stimulus. The test was performed 15 and 90 minutes post-test item injection.

[10] = 20 mM sodium phosphate dibasic with 125 mM sodium chloride, T0

T1 sequence (P43119 whole entry): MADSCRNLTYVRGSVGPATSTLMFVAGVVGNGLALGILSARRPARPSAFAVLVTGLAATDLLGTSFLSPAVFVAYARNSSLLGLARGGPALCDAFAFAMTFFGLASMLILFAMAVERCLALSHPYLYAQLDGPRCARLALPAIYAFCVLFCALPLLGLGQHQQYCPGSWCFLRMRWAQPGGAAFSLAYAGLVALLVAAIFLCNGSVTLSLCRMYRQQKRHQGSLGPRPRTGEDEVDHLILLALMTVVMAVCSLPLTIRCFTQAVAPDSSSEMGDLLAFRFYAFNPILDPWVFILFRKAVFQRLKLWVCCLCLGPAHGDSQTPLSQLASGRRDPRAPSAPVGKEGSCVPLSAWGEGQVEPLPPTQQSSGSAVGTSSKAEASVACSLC
T2 sequence (P43116 whole entry): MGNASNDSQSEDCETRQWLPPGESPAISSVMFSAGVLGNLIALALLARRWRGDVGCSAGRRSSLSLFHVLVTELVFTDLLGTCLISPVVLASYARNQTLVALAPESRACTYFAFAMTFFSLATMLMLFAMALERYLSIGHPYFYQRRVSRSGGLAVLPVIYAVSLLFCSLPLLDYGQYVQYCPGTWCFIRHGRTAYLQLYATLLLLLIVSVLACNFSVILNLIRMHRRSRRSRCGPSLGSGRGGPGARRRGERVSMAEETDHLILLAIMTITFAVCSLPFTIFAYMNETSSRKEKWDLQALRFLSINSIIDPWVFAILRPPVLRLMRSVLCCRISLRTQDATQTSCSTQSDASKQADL

SMILES	stability in buffer [1]	solubility thermodynamic at 23 h [2] [mg/mL]	solubility thermodynamic at 24 h [2] [mg/mL]	solubility thermodynamic at 72 h [2] [mg/mL]	Solution stability, T0 Purity [3, 10] [% Area]	Solution stability, T24 hours Purity ([3]; same vehicle) [% Area]	Solution stability, T72 hours Purity ([3]; same vehicle) [% Area]	relative stability of the prodrugs in liver microsomes [4]	further results
CCCCC[C@@H](CC[C@@H]1[C@H]2Cc3cccc(OCC(=O)O)c3C[C@H]2C[C@H]1O)OC(=O)OC [Prodrug IV, side chain methyl carbonate of treprostinil]	stable	12.5 (≈ 27.9 mM)	12.2 (≈ 27.2 mM)	12.9 (≈ 28.8 mM)	99.19	99.02	99.15	least stable	–
CCCCC[C@H](O)CC[C@@H]1[C@H]2Cc3cccc(OCC(=O)OCC(=O)O)c3C[C@H]2C[C@H]1O [Prodrug XV]	–	–	–	–	–	–	–	–	EC50 ([5]; Table 3 (Example 5)): 4.28 nM; EC50 ([6]; Table 3 (Example 5)): 41.5 nM; EC50 ([7]; Table 3 (Example 5)): 6.99 nM; von Frey withdrawal force threshold vs phosphate buffer group [8]: reduced withdrawal force threshold; thermal paw withdrawal time vs phosphate buffer treated group [9]: statistically significantly faster paw withdrawal time
CCCCC[C@H](O)CC[C@@H]1[C@H]2Cc3cccc(OCC(=O)NS(C)(=O)=O)c3C[C@H]2C[C@H]1O [Prodrug XIV, treprostinil methanesulfonamide]	stable	29.5 (≈ 63.1 mM)	27.5 (≈ 58.8 mM)	26.6 (≈ 56.9 mM)	94.20	94.25	94.56	least stable	EC50 ([5]; Table 4 (Example 6)): 3.33 nM; EC50 ([6]; Table 4 (Example 6)): 67 nM; EC50 ([7]; Table 4 (Example 6)): 38.8 nM; solubility at 23 h ([2]; approximate, read-out: Solubility in the selected vehicle): ~30 mg/mL (≈ 64.2 mM); T0 Residual Treprostinil [3, 10]: 0.08 % Area; treprostinil formation in the vehicle ([3]; formed over 72 hours): 0.15%; T24 Residual Treprostinil ([3]; same vehicle, T24): 0.13 % Area; T72 Residual Treprostinil ([3]; same vehicle, T72): 0.23 % Area
